Results taken from patent EP0226508A1, “Indolo[3,2-c]quinoline derivatives, process for their preparation and their anti-tumour activity” (priority 1985, dated 1987).

Key:
[1] = tested on: souris consanguines DBA₂ saines; assay: Acute toxicity, single intraperitoneal injection in healthy mice, mortality at day 7; format: in vivo; details: single i.p. injection, 50 mg/kg
mélanome B 16 = assay: In vivo antitumour activity, B 16 melanoma test; set-up: species or system souris hybrides BDF₁; details: B 16 melanoma; for Nombre de survivants: survivors at J 60
Excerpt: (§1) L'activité antitumorale a été testée in vivo sur différentes tumeurs selon le protocole général suivant:
(§2) Toutes les souris mâles ou femelles sont inoculées par voie intrapéritonéale au jour Jo avec une quantité déterminée de cellules tumorales viables, variable selon la tumeur.
(§3) Elles sont ensuite réparties en différents lots. Chaque lot correspondant aux animaux traités par le produit à tester à une dose déterminée est composé de 10 souris. Dans ce cas, le produit à tester est dissous dans l'eau distillée et il est administré, pendant n jours (J₁-Jn) variables selon le protocole choisi, par voie intrapéritonéale à raison de 0,1 ml par 10 g de poids des souris traitées, les doses du produit administré étant précisées dans les tableaux ci-dessous.
(§4) Le lot "contrôle négatif", correspondant aux animaux qui ne sont pas traités par un produit, comprend 2 √N animaux, N étant égal au nombre total de souris traitées par un produit.
(§5) Enfin, tous les essais sont conduits parallèlement à l'étude d'un lot appelé "contrôle positif" de 10 animaux qui est traité par une molécule active, variable selon le protocole choisi, dans les mêmes conditions que les lots traités par le produit à tester, afin de valider l'essai.
(§6) L'activité antitumorale est évaluée en considé-rant l'augmentation du temps de survie des animaux traités par rapport à celui des animaux du lot "contrôle négatif" selon la formule : [formula]
(§7) Le produit est également considéré comme toxique lorsque la variation pondérale, exprimée en grammes et calculée par la formule : Poids moyen du lot mesuré au jour 5 -poids moyen du même lot au jour 1 est égale ou inférieure à - 4 g.
Les essais sont effectués avec des souris hybrides BDF₁ inoculées avec 0,5 ml d'un homogénat de mélanome B 16 réalisé à partir de 1 g de tumeur dans 10 ml de sérum physiologique. Le composé à tester est administré pendant 9 jours (J₁-J₉).Le contrôle positif du test est le Cis-Platine administré dans les mêmes conditions. Le nombre d'animaux survivants est évalué au jour J 60.

leucémie L 1210 = assay: In vivo antitumour activity, L 1210 leukemia test; set-up: species or system souris hybrides CDF₁; details: for Nombre de survivants: survivors at J 30
Excerpt: as §1, §2, §3, §4, §5, §6
as §7, with “Un composé est considéré comme étant actif lorsque la valeur du rapport T/C est égale ou supérieure à 125 % selon le protocole retenu. Il est toxique lorsque cette valeur est égale ou inférieure à 85 %. Le” for “Le”
b) Test de la leucémie L 1210 (GERAN et al., Cancer Chemother, 1972, 2, 07-57).
Les essais sont effectués avec des souris hybrides CDF₁ inoculées avec 10⁵ cellules leucémiques de la lignée L 1210. Le composé à tester est administré pendant 5 jours (J₁-J₅).Le contrôle positif du test est le 5-fluorouracile administré dans les mêmes conditions. Le nombre d'animaux survivants est évalué au jour J 30. Un composé est considéré comme étant actif lorsque le rapport T/C est supérieur ou égal à 125 %.

leucémie P 388 = assay: animal or person; format: in vivo, souris hybrides CDF 1
Excerpt: as §1, §2, §3, §4, §5, §6
as §7, with “Un composé est considéré comme étant actif lorsque la valeur du rapport T/C est égale ou supérieure à 125 % selon le protocole retenu. Il est toxique lorsque cette valeur est égale ou inférieure à 85 %. Le” for “Le”
a) Test de la leucémie P 388 (GERAN et al., Cancer Chemother, 1972, 2, 07-57).
Les essais sont effectués avec des souris hybrides CDF 1 inoculées par voie intrapéritonéale avec 10⁶ cellules leucémiques de la lignée P 388. Le composé à tester est administré pendant 5 jours (J1-J5). Le contrôle positif du test est le 5-fluorouracile qui est administré dans les mêmes conditions. Le nombre d'animaux survivants est évalué au jour J 40. Un composé est considéré comme étant actif lorsque le rapport T/C est supérieur à 127 %.

[2] = tested on: lignée tumorale leucémie L 1210; assay: In vitro cytotoxic activity on L 1210 leukemia cell culture (inhibition of cell proliferation); format: cell-based; details: Mus musculus, L1210; L 1210 culture in exponential growth, 37°C, after 48 hours of contact; read-out: ID 50 (the source's name)
Description: 1) In vitro : (PAOLETTI et al., Chem. Biol. Interaction, 1979, 25, 45-58).
L'activité cytotoxique des composés de l'invention a été évaluée par des essais in vitro. Ces essais consistent à ajouter des concentrations croissantes du composé à tester à une culture cellulaire de la lignée tumorale leucémie L 1210 en phase exponentielle de croissance. Les cellules sont incubées à 37°C dans une étuve à CO₂ et comptées toutes les 24 heures. Le calcul de l'ID₅₀ (concentration du produit exprimée en micromole 1⁻¹ qui inhibe la prolifération cellulaire à 50 p. 100) est effectuée après 48 heures de contact. Ainsi déterminées les ID₅₀ des composés de l'invention sont rassemblées dans le tableau ci-après.

[3] = BDF₁ mice, 0,625 mg/kg i.p. J1-J9
[4] = BDF₁ mice, 1,25 mg/kg i.p. J1-J9
[5] = BDF₁ mice, 2,5 mg/kg i.p. J1-J9
[6] = L 1210, CDF₁ mice, 5 mg/kg i.p. J1-J5
[7] = L 1210, CDF₁ mice, 10 mg/kg i.p. J1-J5
[8] = L 1210, CDF₁ mice, 20 mg/kg i.p. J1-J5
[9] = L 1210, CDF₁ mice, 30 mg/kg i.p. J1-J5
[10] = L 1210, CDF₁ mice, 1,25 mg/kg i.p. J1-J5
[11] = L 1210, CDF₁ mice, 2,5 mg/kg i.p. J1-J5
[12] = L 1210, CDF₁ mice, 7,5 mg/kg i.p. J1-J5

With `CCN(CC)CCCNc1nc2ccccc2c2[nH]c3ccc(O)cc3c12` [Dérivé N°11, (diéthylamino-3 propylamino)-6 hydroxy-8 11-H indolo[3,2-c]quinoléine] the “mortalité évaluée au septième jour après l'administration” value [1] was “aucune mortalité”, the “Jour médian de survie” value (mélanome B 16; BDF₁ mice, 5 mg/kg i.p. J1-J9) was 31 and the T/C % (mélanome B 16; BDF₁ mice, 5 mg/kg i.p. J1-J9) was 132%. The Nombre de survivants (mélanome B 16; BDF₁ mice, 5 mg/kg i.p. J1-J9) was 0, the “Jour médian de survie” value (mélanome B 16; [3]) was 29 and the T/C % (mélanome B 16; [3]) was 123%. For the same molecule, the Nombre de survivants (mélanome B 16; [3]) was 0, the “Jour médian de survie” value (mélanome B 16; [4]) was 40 and the T/C % (mélanome B 16; [4]) was 170%. For the same molecule, the Nombre de survivants (mélanome B 16; [4]) was 1, the “Jour médian de survie” value (mélanome B 16; [5]) was 38 and the T/C % (mélanome B 16; [5]) was 162%. The Nombre de survivants (mélanome B 16; [5]) was 2, the “Jour médian de survie” value (leucémie L 1210; [6]) was 14,25 and the T/C % (leucémie L 1210; [6]) was 160%. For the same molecule, the Nombre de survivants (leucémie L 1210; [6]) was 0, the “Jour médian de survie” value (leucémie L 1210; [7]) was 12,25 and the T/C % (leucémie L 1210; [7]) was 138%. For the same molecule, the Nombre de survivants (leucémie L 1210; [7]) was 0, the “Jour médian de survie” value (leucémie L 1210; [8]) was 11,7 and the T/C % (leucémie L 1210; [8]) was 131%. The Nombre de survivants (leucémie L 1210; [8]) was 0, the “Jour médian de survie” value (leucémie L 1210; [9]) was 8,3 and the T/C % (leucémie L 1210; [9]) was 93%. For the same molecule, the Nombre de survivants (leucémie L 1210; [9]) was 0, the “Jour médian de survie” value (leucémie L 1210; [10]) was 10,9 and the T/C % (leucémie L 1210; [10]) was 122%. For the same molecule, the Nombre de survivants (leucémie L 1210; [10]) was 0, the “Jour médian de survie” value (leucémie L 1210; [11]) was 12,75 and the T/C % (leucémie L 1210; [11]) was 143%. For the same molecule, the Nombre de survivants (leucémie L 1210; [11]) was 0, the “Jour médian de survie” value (leucémie L 1210; [12]) was 12,3 and the T/C % (leucémie L 1210; [12]) was 138%. It also gave a Nombre de survivants (leucémie L 1210; [12]) of 0, a response vs control in vivo at 5 mg/kg (leucémie P 388; Mus musculus, P388, ip, P 388, CDF 1 mice, 5 mg/kg i.p. J1-J5, read-out: T/C %) of 154% and a response vs control in vivo at 1.25 mg/kg (leucémie P 388; Mus musculus, P388, ip, P 388, CDF 1 mice, 1,25 mg/kg i.p. J1-J5, read-out: T/C %) of 142%. For the same molecule, the response vs control in vivo at 2.5 mg/kg (leucémie P 388; Mus musculus, P388, ip, P 388, CDF 1 mice, 2,5 mg/kg i.p. J1-J5, read-out: T/C %) was 152%, the response vs control in vivo at 15 mg/kg (leucémie P 388; Mus musculus, P388, ip, P 388, CDF 1 mice, 15,0 mg/kg i.p. J1-J5, read-out: T/C %) was 146% and the “Variation pondérale en g” value (leucémie P 388; in vivo, ip, 5 mg/kg) was “+ 0,6 g”. The IC50 [2] was 130 nM.
